Test results taken from ChEMBL document CHEMBL1128973, “Potent matrix metalloproteinase inhibitors: Amino-carboxylate compounds containing modifications of the P1 residue” (Bioorg Med Chem Lett, 1996).

molecular target: Stromelysin-1 (Homo sapiens, UniProt P08254); experiment: Inhibitory activity against Matrix metalloprotease-3
Sequence (P08254 whole entry): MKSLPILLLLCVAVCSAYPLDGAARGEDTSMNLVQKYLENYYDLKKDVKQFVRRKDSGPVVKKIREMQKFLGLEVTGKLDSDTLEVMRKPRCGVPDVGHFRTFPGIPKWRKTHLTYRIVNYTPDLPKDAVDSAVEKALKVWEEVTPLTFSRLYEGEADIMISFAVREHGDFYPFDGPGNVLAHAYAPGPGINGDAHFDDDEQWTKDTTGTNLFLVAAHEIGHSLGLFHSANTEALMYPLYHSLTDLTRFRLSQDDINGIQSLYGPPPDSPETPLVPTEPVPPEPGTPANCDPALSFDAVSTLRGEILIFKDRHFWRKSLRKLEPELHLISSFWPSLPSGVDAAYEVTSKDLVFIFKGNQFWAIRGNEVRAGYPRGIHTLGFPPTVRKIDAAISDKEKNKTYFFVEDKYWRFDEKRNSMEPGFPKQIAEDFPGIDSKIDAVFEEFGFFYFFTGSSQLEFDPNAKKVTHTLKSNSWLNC

IC50 | SMILES
550 nM | COc1ccc(S(=O)(=O)NCC[C@H](N[C@@H](CCc2ccccc2)C(=O)N[C@@H](CC(C)C)C(=O)NOCc2ccccc2)C(=O)O)cc1
50 nM | Cc1ccc(S(=O)(=O)NCC[C@H](N[C@@H](CCc2ccccc2)C(=O)N[C@@H](CC(C)C)C(=O)Nc2ccccc2)C(=O)O)cc1
50 nM | COc1ccc(S(=O)(=O)NCC[C@H](N[C@@H](CCc2ccccc2)C(=O)N[C@@H](CC(C)C)C(=O)Nc2ccccc2)C(=O)O)cc1
> 20000 nM | CCOC(=O)N1CCN(C(=O)[C@H](CCc2ccccc2)N[C@@H](CCNS(=O)(=O)c2ccc(OC)cc2)C(=O)O)CC1
1900 nM | CNC(=O)[C@H](Cc1ccccc1)NC(=O)[C@H](CCc1ccccc1)N[C@@H](CCN1C(=O)NC2(CCCC2)C1=O)C(=O)O
510 nM | CNC(=O)[C@H](Cc1ccccc1)NC(=O)[C@H](CCc1ccccc1)N[C@@H](CCNS(=O)(=O)c1ccc2ccccc2c1)C(=O)O
> 20000 nM | COc1ccc(S(=O)(=O)NCC[C@H](N[C@@H](CCc2ccccc2)C(=O)N2CCC(O)CC2)C(=O)O)cc1
120 nM | CNC(=O)[C@H](Cc1ccccc1)NC(=O)[C@H](CCc1ccccc1)N[C@@H](CCNS(=O)(=O)c1ccc(C)cc1)C(=O)O
18000 nM | CNC(=O)c1ccc(CNC(=O)[C@H](CCc2ccccc2)N[C@@H](CCNS(=O)(=O)c2ccc(OC)cc2)C(=O)O)cc1
> 20000 nM | COc1ccc(S(=O)(=O)NCC[C@H](N[C@@H](CCc2ccccc2)C(=O)N2CCN(S(C)(=O)=O)CC2)C(=O)O)cc1
14000 nM | COc1ccc(S(=O)(=O)NCC[C@H](N[C@@H](CCc2ccccc2)C(=O)NCc2ccc(C(=O)O)cc2)C(=O)O)cc1
1100 nM | CNC(=O)[C@H](Cc1ccccc1)NC(=O)[C@H](CCc1ccccc1)N[C@@H](CCNC(=O)c1cc2ccccc2[nH]1)C(=O)O
> 20000 nM | CCOC(=O)N1CCC(NC(=O)[C@H](CCc2ccccc2)N[C@@H](CCNS(=O)(=O)c2ccc(OC)cc2)C(=O)O)CC1
> 20000 nM | COc1ccc(S(=O)(=O)NCC[C@H](N[C@@H](CCc2ccccc2)C(=O)N2CCOCC2)C(=O)O)cc1
